Assay results from patent publication US8354414B2, “Substituted bicyclic pyrimidines” (Cephalon, Inc, priority 2006, dated 2013).
Like-named read-outs stand apart in the source and are kept apart here.

Key:
CDK5/GST-p25 = molecular target: T1, CDK5/GST-p25 (Homo sapiens, UniProt Q00535); assay: Inhibition of CDK5/GST-p25 kinase activity (ELISA with time-resolved fluorescence readout); type: biochemical
T1 construct: The final construct, encoding for full-length human CDK5; made in house; host or cells: Sf21 insect cells (baculovirus co-infection)
In short: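 The substrate, GST-Rb(773-928), was immobilised on plates and phosphorylated for 20 min at 37 °C by 2 ng/ml CDK5/GST-p25 in HEPES pH 7.2 with 10 µM ATP and 10 mM MgCl2. Both proteins were human and co-expressed in insect cells. Ser-780 phosphorylation was read by europium time-resolved fluorescence and converted to IC50.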

His6-GSK-3β = molecular target: T2, His6-GSK-3β (Homo sapiens, UniProt P49841); assay: Inhibition of His6-GSK-3β kinase activity (ELISA-based format, time-resolved fluorescence readout); type: biochemical; details: read-out: GSK3β IC50
T2 construct: made in house; host or cells: Sf21 insect cells (baculovirus)
In short: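 Plate-bound recombinant GST-Rb substrate was phosphorylated for 30 min at 37° C by baculovirus-expressed His6-GSK-3β (200 ng/ml) at 20 μM ATP, 10 mM MgCl2, 2.5% DMSO. Europium time-resolved fluorescence of anti-phospho-Ser780 Rb signal gave inhibition, fitted to IC50.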

T2 sequence (P49841 2-419): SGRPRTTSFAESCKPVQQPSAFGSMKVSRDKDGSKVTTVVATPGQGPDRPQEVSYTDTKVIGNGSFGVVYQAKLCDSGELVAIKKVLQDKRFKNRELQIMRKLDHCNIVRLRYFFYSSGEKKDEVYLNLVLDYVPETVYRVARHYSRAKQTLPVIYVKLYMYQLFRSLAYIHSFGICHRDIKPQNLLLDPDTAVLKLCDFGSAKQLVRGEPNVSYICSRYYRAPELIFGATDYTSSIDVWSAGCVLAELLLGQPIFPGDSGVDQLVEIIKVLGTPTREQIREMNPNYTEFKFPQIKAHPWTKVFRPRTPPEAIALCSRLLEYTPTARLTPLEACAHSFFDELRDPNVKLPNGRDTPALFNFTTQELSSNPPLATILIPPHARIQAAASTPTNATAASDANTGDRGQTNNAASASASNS
T1 sequence (Q00535 whole entry): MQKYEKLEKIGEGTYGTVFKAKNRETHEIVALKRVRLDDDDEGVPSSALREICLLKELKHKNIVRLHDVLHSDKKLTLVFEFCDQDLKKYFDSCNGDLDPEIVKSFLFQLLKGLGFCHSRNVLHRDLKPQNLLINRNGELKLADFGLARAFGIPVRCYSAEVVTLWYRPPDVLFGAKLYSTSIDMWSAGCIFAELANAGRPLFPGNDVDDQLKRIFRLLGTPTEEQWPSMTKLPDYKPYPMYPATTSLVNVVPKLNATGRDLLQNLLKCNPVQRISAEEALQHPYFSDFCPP
T1 sequence (Q15078 108-307 partner limits assumed): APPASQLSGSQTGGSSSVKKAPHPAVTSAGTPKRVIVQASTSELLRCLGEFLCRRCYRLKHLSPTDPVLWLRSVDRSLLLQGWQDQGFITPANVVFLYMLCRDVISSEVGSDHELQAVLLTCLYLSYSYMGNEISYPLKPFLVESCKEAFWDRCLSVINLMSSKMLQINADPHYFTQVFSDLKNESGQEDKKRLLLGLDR

| SMILES | IC50 (CDK5/GST-p25; class symbols) | IC50 (His6-GSK-3β; class symbols) | melting point | IC50 (His6-GSK-3β; numeric bounds) | IC50 (CDK5/GST-p25; numeric bounds) |
| --- | --- | --- | --- | --- | --- |
| CCCn1cc2c(C3C(=O)Nc4ccc(Br)cc43)nc(NCc3cccnc3)nc2n1 (stereo not drawn) [Example 196, 5-Bromo-3-{2-propyl-6-[(pyridin-3-ylmethyl)-amino]-2H-pyrazolo[3,4-d]pyrimidin-4-yl}-1,3-dihydro-indol-2-one] | < 300 nM | < 300 nM | 277 to 281 °C | – | – |
| CCCn1cc2c(C3C(=O)Nc4ccc(Br)cc43)nc(NCCN(C)C)nc2n1 (stereo not drawn) [Example 197, 5-Bromo-3-[6-(2-dimethylamino-ethylamino)-2-propyl-2H-pyrazolo[3,4-d]pyrimidin-4-yl]-1,3-dihydro-indol-2-one] | < 300 nM | < 300 nM | 270 to 274 °C | – | – |
| CCCn1cc2c(C3C(=O)Nc4ccc(Br)cc43)nc(NCCCN(C)C)nc2n1 (stereo not drawn) [Example 198, 5-Bromo-3-[6-(3-dimethylamino-propylamino)-2-propyl-2H-pyrazolo [3,4-d]pyrimidin-4-yl]-1,3-dihydro-indol-2-one] | < 300 nM | < 300 nM | 286 to 290 °C | – | – |
| CCCn1cc2c(C3C(=O)Nc4ccc(Br)cc43)nc(NCCCN)nc2n1 (stereo not drawn) [Example 199, 3-[6-(3-Amino-propylamino)-2-propyl-2H-pyrazolo [3,4-d]pyrimidin-4-yl]-5-bromo-1,3-dihydro-indol-2-one] | < 300 nM | < 300 nM | > 300 °C | – | – |
| CCCn1cc2c(C3C(=O)Nc4ccc(Br)cc43)nc(NCCN)nc2n1 (stereo not drawn) [Example 200, 3-[6-(2-Amino-ethylamino)-2-propyl-2H-pyrazolo [3,4-d]pyrimidin-4-yl]-5-bromo-1,3-dihydro-indol-2-one] | < 300 nM | < 300 nM | 272 to 276 °C | – | – |
| CCCn1cc2c(C3C(=O)Nc4ccc(Br)cc43)nc(NCCN3CCOCC3)nc2n1 (stereo not drawn) [Example 202, 5-Bromo-3-[6-(2-morpholin-4-yl-ethylamino)-2-propyl-2H-pyrazolo [3,4-d]pyrimidin-4-yl]-1,3-dihydro-indol-2-one] | < 300 nM | < 300 nM | 299 to 303 °C | – | – |
| CCCn1cc2c(C3C(=O)Nc4ccc(Br)cc43)nc(NCCCN3CCOCC3)nc2n1 (stereo not drawn) [Example 203, 5-Bromo-3-[6-(3-morpholin-4-yl-propylamino)-2-propyl-2H-pyrazolo [3,4-d]pyrimidin-4-yl]-1,3-dihydro-indol-2-one] | < 300 nM | < 300 nM | 298 to 303 °C | – | – |
| CCCn1cc2c(C3C(=O)Nc4ccc(S(=O)(=O)N(C)C)cc43)nc(Cl)nc2n1 (stereo not drawn) [Example 204, 3-(6-Chloro-2-propyl-2H-pyrazolo [3,4-d]pyrimidin-4-yl)-2-oxo-2,3-dihydro-1H-indole-5-sulfonic acid dimethylamide] | 300 to 3000 nM | – | > 300 °C | > 3000 nM | – |
| CCCn1cc2c(C3C(=O)Nc4ccc(S(=O)(=O)N(C)C)cc43)nc(NCCN(C)C)nc2n1 (stereo not drawn) [Example 205, 3-[6-(2-Dimethylamino-ethylamino)-2-propyl-2H-pyrazolo [3,4-d]pyrimidin-4-yl]-2-oxo-2,3-dihydro-1H-indole-5-sulfonic acid dimethylamide] | – | > 10000 nM | 259 to 263 °C | – | > 3000 nM |
| CCOCCn1cc2c(C3C(=O)Nc4ccc(Cl)cc43)nc(Cl)nc2n1 (stereo not drawn) [Example 211, 5-Chloro-3-[6-chloro-2-(2-ethoxy-ethyl)-2H-pyrazolo[3,4-d]pyrimidin-4-yl]-1,3-dihydro-indol-2-one] | > 10000 nM | > 10000 nM | > 300 °C | – | – |
| CCOCCn1cc2c(C3C(=O)Nc4ccc(Cl)cc43)nc(NCc3ccncc3)nc2n1 (stereo not drawn) [Example 214, 5-Chloro-3-{2-(2-ethoxy-ethyl)-6-[(pyridine-4-ylmethyl)-amino]-2H-pyrazolo[3,4-d]pyrimidin-4-yl}-1,3-dihydro-indol-2-one] | < 300 nM | < 300 nM | 298 to 299 °C | – | – |
| CCOCCn1cc2c(C3C(=O)Nc4ccc(Cl)cc43)nc(NCCN(C)C)nc2n1 (stereo not drawn) [Example 216, 5-Chloro-3-[6-(2-dimethylamino-ethylamino)-2-(2-ethoxy-ethyl)-2H-pyrazolo[3,4-d]pyrimidin-4-yl]-1,3-dihydro-indol-2-one] | 300 to 3000 nM | 300 to 3000 nM | 293 to 295 °C | – | – |
| CCOCCn1cc2c(C3C(=O)Nc4ccc(Cl)cc43)nc(NCCN3CCOCC3)nc2n1 (stereo not drawn) [Example 217, 5-Chloro-3-[2-(2-ethoxy-ethyl)-6-(2-morpholin-4-yl-ethylamino)-2H-pyrazolo [3,4-d]pyrimidin-4-yl]-1,3-dihydro-indol-2-one] | < 300 nM | < 300 nM | 293 to 294 °C | – | – |
| CCOCCn1cc2c(C3C(=O)Nc4ccc(Cl)cc43)nc(NC[C@@H](C)O)nc2n1 (stereo partly drawn) [Example 218, 5-Chloro-3-[2-(2-ethoxy-ethyl)-6-((R)-2-hydroxy-propylamino)-2H-pyrazolo[3,4-d]pyrimidin-4-yl]-1,3-dihydro-indol-2-one] | < 300 nM | < 300 nM | > 300 °C | – | – |
| CCOCCn1cc2c(C3C(=O)Nc4ccc(Cl)cc43)nc(NC[C@H](C)O)nc2n1 (stereo partly drawn) [Example 219, 5-Chloro-3-[2-(2-ethoxy-ethyl)-6-((S)-2-hydroxy-propylamino)-2H-pyrazolo [3,4-d]pyrimidin-4-yl]-1,3-dihydro-indol-2-one] | < 300 nM | < 300 nM | > 300 °C | – | – |
| COCCn1cc2c(C3C(=O)Nc4ccc(Br)cc43)nc(Cl)nc2n1 (stereo not drawn) [Example 225, 5-Bromo-3-[6-chloro-2-(2-methoxy-ethyl)-2H-pyrazolo [3,4-d]pyrimidin-4-yl]-1,3-dihydro-indol-2-one] | > 10000 nM | < 300 nM | > 300 °C | – | – |
| COCCn1cc2c(C3C(=O)Nc4ccc(Br)cc43)nc(NCCN(C)C)nc2n1 (stereo not drawn) [Example 229, 5-Bromo-3-[6-(2-dimethylamino-ethylamino)-2-(2-methoxy-ethyl)-2H-pyrazolo[3,4-d]pyrimdin-4-yl]-1,3-dihydro-indol-2-one] | 300 to 3000 nM | 300 to 3000 nM | 291 to 292 °C | – | – |
| COCCn1cc2c(C3C(=O)Nc4ccc(Br)cc43)nc(NC[C@H](C)O)nc2n1 (stereo partly drawn) [Example 230, 5-Bromo-3-[6((S)-2-hydroxy-propylamino)-2-(2-methoxy-ethyl)-2H-pyrazolo [3,4-d]pyrimidin-4-yl]-1,3-dihydro-indol-2-one] | < 300 nM | < 300 nM | > 300 °C | – | – |
| COCCn1cc2c(C3C(=O)Nc4ccc(Br)cc43)nc(NC[C@@H](C)O)nc2n1 (stereo partly drawn) [Example 231, 5-Bromo-3-[6-((R)-2-hydroxy-propylamino)-2-(2-methoxy-ethyl)-2H-pyrazolo[3,4-d]pyrimidin-4-yl]-1,3-dihydro-indol-2-one] | < 300 nM | < 300 nM | > 300 °C | – | – |
| COCCn1cc2c(C3C(=O)Nc4ccc(Br)cc43)nc(NCc3cccnc3)nc2n1 (stereo not drawn) [Example 232, 5-Bromo-3-{2-(2-methoxy-ethyl)-6-[(pyridin-3-ylmethyl)-amino]-2H-pyrazolo[3,4-d]pyrimidin-4-yl}-1,3-dihydro-indol-2-one] | < 300 nM | < 300 nM | 300 to 301 °C | – | – |
